Patent US12226410B2, “Methods for enhancing cellular clearance of pathological molecules via activation of the cellular protein ykt6” (NORTHWESTERN UNIVERSITY, priority 2019, dated 2025)

Key:
lysosomal GCase = experiment: Live cell GCase activity assay in A53T iPSn; type: cell-based, human
Method: FIGS. 6A, 6B, 6C, 6D, 6E, 6F, and 6G. FTIs enhance lysosomal GCase activity and reduce pathological a-syn by blocking ykt6 farnesylation. 6A) GCase activity in FTI-treated A53T iPSn at d80 (LNK-754 5 nM, 5d). 6B) GCase activity in FTI-treated A53T iPSn expressing empty vector (vect) or ykt6-CS (n=4). 6C) Lysosomal GCase activity was assessed in FTI-treated SHSY5Y cells transfected with scrambled or ykt6 shRNA (KD) (n=3). 6D) Quantification of Triton X-100 soluble (T-sol) a-syn by western blot from FTI-treated A53T iPSn (5 nM, 7d). *, non-specific band. (n=3). 6E) Quantification of insoluble a-syn from A53T iPSn as in D (n=3). 6F) Insoluble a-syn in FTI-treated H4 cells (5 nM, 5 days) transfected with either scrambled or ykt6 shRNA (n=6). 6G) Neuron viability was assessed in FTI-treated A53T iPSn (5 nM, 14d from d86-d100) by quantification of neurofilament protein. Right, neuron viability in FTI-treated A53T iPSn expressing empty vector or ykt6-CS (n=4). Values are the mean+/−SEM, *p<0.05, **p<0.01, ***p<0.001.
Live cell GCase activity assay. […] Fluorescent signal was quantified over time and normalized to total cell volume using CellTag 700 (Licor) or lysosomal mass by using cascade dextran blue (#D-1976, Thermofisher). […]
Treatment of cultures with farnesyltransferase inhibitors. […] Cultures were harvested and analyzed as described in the above sections.

human A53T a-syn = experiment: FTI treatment of DASYN53 mice: soluble and insoluble a-syn in midbrain; type: in vivo; settings: i.p. 0.9 mg/kg, 26d
Text: FIGS. 8A, 8B, 8C, 8D, 8E, and 8F. FTI treatment enhances GCase activity and reduces pathological a-syn in transgenic mice. 8A) GCase activity in the midbrain of FTI (LNK-754)-treated DASYN53 mice (treated as in FIG. 7) (n=4, veh; n=5, FTI). 8B & 8C) Quantification of soluble and insoluble a-syn from midbrains of FTI-treated DASYN53 mice normalized to total protein (CBB). Syn211 is selective for human (hu) a-syn; C20 and syn303 detect mouse (ms) and hu a-syn, (n=3, nTg+Veh; n=4, DASYN53+veh; n=5 DASYN53+FTI). 8D) Midbrain TH levels were quantified by western blot of FTI-treated DASYN53 mice (n=3). 8E) Body weight of FTI-treated DASYN53 mice (n=9, nTg+Veh; n=7, DASYN53+veh; n=7 DASYN53+FTI). 8F) Rotarod test of FTI-treated DASYN53 mice (n=12, nTg+Veh; n=7, DASYN53+veh; n=7 DASYN53+FTI). Values are the mean+/−SEM. *p<0.05, **p<0.01, and *** p<0.001. Student's t-test, panel A; ANOVA with Tukey's posthoc test, panels B-F.
Sequential biochemical extraction for the analysis of pathological a-synuclein. Cells were harvested in phosphate buffered saline (PBS), pH 7.4, and pelleted by centrifugation at 400×g for 5 minutes. […] Protein concentration was measured by BCA assay (Pierce). […]

ykt6 = experiment: Ykt6 in red blood cells of FTI-treated mice; type: in vivo; settings: WT mice
Text: FIG. 20. Ykt6 in red blood cells of human and mice. A) Fractionation of RBCs/western blot of ykt6. Markers indicate efficient separation of cytosol (GAPDH) and membrane (Ank, Ankyrin-1). […] B) Ykt6 from RBCs of nTg of symptomatic 12 mo old A53T mice (ref 12) (n=3-5).
(See FIG. 20A). […] (See FIG. 20C).

With `C#Cc1cccc(-c2cc(=O)n(C)c3ccc([C@](O)(c4ccc(Cl)cc4)c4cncn4C)cc23)c1` [LNK-754] as the compound, how does the “lysosomal GCase activity” value (lysosomal GCase; 1 nM) read?
Its value is “partially rescued”.

And the “lysosomal GCase activity” value (lysosomal GCase; 4 and 10 nM)?
The value was “near-complete rescue”.

And the “soluble and insoluble A53T a-syn in midbrain extracts” value (human A53T a-syn)?
The value was “reduce soluble and insoluble A53T a-syn”.

What about the “membrane Ykt6 in red blood cells” value (ykt6) of the same compound?
The value was “increases membrane Ykt6”.

And the “membrane Ykt6 in red blood cells” value (ykt6; listed as FTI)?
The value was “activation of ykt6 in red blood cells”.
